Values of other authors, collected in article PMC7247160, “Inhibitors of DNA Glycosylases as Prospective Drugs” (International Journal of Molecular Sciences, 2020).
Like-named read-outs stand apart in the source and are kept apart here.

Key:
[1] = test system: UNG; conditions: for IC50: UNG, human, read-out: I50
[2] = test system: OGG1; parameters: method as in PMID 30442810; conditions: OGG1, mouse; read-out: I50
[3] = test system: OGG1; parameters: method as in PMID 30442810; conditions: mouse model
[4] = test system: NEIL1; conditions: NEIL1, human; read-out: I50
[5] = test system: D4/A20 complex; conditions: UNG (D4), vaccinia virus; read-out: IC50 for DNA polymerase activity in the presence of the D4/A20 complex
[6] = test system: OGG1; conditions: OGG1, human; read-out: I50
[7] = target: Fpg; conditions: E. coli
[8] = test system: UNG; parameters: method as in PMID 23400284; conditions: species not specified, read-out: I50
[9] = test system: UNG
[10] = test system: Fpg; parameters: method as in PMID 25143530; conditions: Lactococcus lactis, read-out: I50
[11] = test system: Fpg; conditions: for Fpg inhibition (in words): free damaged base analogs
[12] = test system: MTH1; conditions: MTH1, human; read-out: I50
[13] = test system: MPG; parameters: method as in PMID 25650313; conditions: human, read-out: I50
[14] = test system: NEIL2; parameters: method as in PMID 23138988; conditions: NEIL2, human; read-out: I50
[15] = test system: NTHL1; parameters: method as in PMID 23138988; conditions: NTHL1, human; read-out: I50
[16] = test system: UNG; remark: listed apart in the source
[17] = target: MutY; conditions: read-out: Kd or Ki directly measured
[18] = test system: Nei2; parameters: method as in PMID 28955788; conditions: Nei2, Mycobacterium tuberculosis
[19] = read-out: Kd or Ki directly measured

O=C(O)c1cccc(C=NOCCON=Cc2cc(=O)[nH]c(=O)[nH]2)c1 [C00003 R1 = C00004 R2 = COOH, R3 = H]
IC50 ([1]; bipartite inhibitors): 40 µM

O=C(Nc1ccc(I)cc1)N1CCC(n2c(=O)[nH]c3c(Br)cccc32)CC1 [TH5487]
IC50 [2]: 0.34 µM | Effect on inflammatory response [3]: downregulates the inflammatory response

Cc1cc(/C=C/C#N)cc(C)c1Nc1nc(Nc2ccc3c(c2)OCO3)c2nc[nH]c2n1 [C00028 R = C00032]
IC50 [4]: 10 µM

Oc1ccc(NCc2ccccc2OCc2ccccc2)cc1 [C00012]
IC50 [5]: 5.1 µM

NNC(=O)c1sc2cccc(Cl)c2c1Cl [C00018]
IC50 [6]: 0.22 µM

O=C(O)c1cccc(CNCCCCNCc2cc(=O)[nH]c(=O)[nH]2)c1 [C00003 R1 = C00007 R2 = COOH, R3 = H]
IC50 ([1]; bipartite inhibitors): 315 µM

O=C(NN=C1CCCCC1)c1cc2ccccc2cc1O [C00022]
IC50 [6]: 0.34 µM

Nc1c(S(=O)(=O)O)cc(Nc2ccc(Nc3nc(Cl)nc(Nc4ccccc4S(=O)(=O)O)n3)c(S(=O)(=O)O)c2)c2c1C(=O)c1ccccc1C2=O [Cibacron Blue F3GA]
Ki [7, 19]: 0.005 µM

Cc1cc(/C=C/C#N)cc(C)c1Nc1nc(Nc2ccc3scnc3c2)c2nc[nH]c2n1 [C00028 R = C00029]
IC50 [4]: 4 µM

gentamicin
IC50 [8]: 1500 µM | IC50 ([9]; UNG, E. coli, read-out: I50): 420 µM

O=c1cc(/C=N/OCCCO/N=C/c2cc(O)c(O)cc2Br)[nH]c(=O)[nH]1 [C00002 R = Br]
IC50 ([1]; bipartite inhibitors): 40 µM

O=C(O)c1cccc(CNCCCON=Cc2cc(=O)[nH]c(=O)[nH]2)c1 [C00003 R1 = C00006 R2 = COOH, R3 = H]
IC50 ([1]; bipartite inhibitors): 100 µM

N#C[C@]1(n2ccc(=O)[nH]c2=O)C[C@H](O)[C@@H](COP(=O)(O)OP(=O)(O)OP(=O)(O)O)O1 [1′-cyano-2′-deoxyuridine triphosphate]
Ki ([1]; human UNG, nucleotide incorporated into DNA): nanomolar | Ki ([9]; E. coli Ung, nucleotide incorporated into DNA): nanomolar

2-thioxanthine
IC50 ([7]; read-out: I50): 17 µM | IC50 [10]: 100 µM | IC50 ([11]; oxidizes zinc finger cysteines, not a true inhibitor, read-out: IC50, ability to suppress Fpg activity): 10 to 100 µM

CN(C=O)c1c(N)nc(N)[nH]c1=O [2,6-diamino-4-oxo-5-(N-methylformamido)pyrimidine]
Fpg inhibition (in words) [11]: weakly inhibited

O=C(O)c1cccc(C=NOCCCNCc2cc(=O)[nH]c(=O)[nH]2)c1 [C00003 R1 = C00005 R2 = COOH, R3 = H]
IC50 ([1]; bipartite inhibitors): 1.6 µM

Cc1cnc(N)nc1CCCNC(=O)c1cccc(-c2ccc(S(=O)(=O)Nc3ccc4c(c3)N(C(=O)C3CC3)CCC4)cc2)c1 [SU0383]
IC50 [12]: 0.034 µM | IC50 [6]: 0.49 µM

CCn1cnc2c(Nc3cccc(C)c3)nc(N[C@@H]3CCCC[C@@H]3N)nc21 [C00027]
IC50 [4]: 25 µM

O=c1c(O)c(-c2ccc(O)cc2O)oc2cc(O)cc(O)c12 [Morin]
IC50 [13]: 2.6 µM

O=c1cc(/C=N/OCCCO/N=C/c2cc(O)c(O)cc2Cl)[nH]c(=O)[nH]1 [C00002 R = Cl]
IC50 ([1]; bipartite inhibitors): 16 µM

O=C(O)c1cccc(/C=N/OCC(CO/N=C/c2cccc(C(=O)O)c2)CO/N=C/c2cc(=O)[nH]c(=O)[nH]2)c1 [C00009 R1 = R2 = 3-carboxyphenyl]
IC50 ([1]; triskelion inhibitors): 1.7 µM

Nc1cc(=O)[nH]c(N)c1N=O [5-nitroso-4,6-diamino-2-oxopyridine]
Fpg inhibition (in words) [11]: weakly inhibited

O=c1cc(/C=N/OCCCO/N=C/c2cc(O)c(O)cc2[N+](=O)[O-])[nH]c(=O)[nH]1 [C00002 R = NO2]
IC50 ([1]; bipartite inhibitors): 40 µM

O=c1cc(/C=N/OCCCO/N=C/c2ccc(O)c(O)c2)[nH]c(=O)[nH]1 [C00002 R = H]
IC50 ([1]; bipartite inhibitors): 1.1 µM

Cc1cc(/C=C/C#N)cc(C)c1Nc1nc(Nc2ccc3c(c2)CCC3)c2nc[nH]c2n1 [C00028 R = C00031]
IC50 [4]: 8.9 µM

Cc1nc2ccc(Nc3nc(Nc4c(C)cc(/C=C/C#N)cc4C)nc4[nH]cnc34)cc2s1 [C00028 R = C00030]
IC50 [4]: 7.9 µM

O=c1cc(/C=N/OCC(CO/N=C/c2ccc(O)c(O)c2)CO/N=C/c2ccc(O)c(O)c2)[nH]c(=O)[nH]1 [C00009 R1 = R2 = 3,4-dihydroxyphenyl]
IC50 ([1]; triskelion inhibitors): 1.6 µM

O=C(O)/C=C/C(=O)CC(=O)CC(=O)O [Fumarylacetoacetate]
IC50 [6]: 1 µM | IC50 [4]: 0.006 µM | IC50 [14]: 0.032 µM | IC50 [15]: 1 µM

CCCCCCCCc1ccc(Nc2cc(=O)[nH]c(=O)[nH]2)cc1 [C00001 R1 = n-octyl R2 = H, 6-(p-n-octylanilino)uracil]
IC50 ([16]; UNG, HSV1, read-out: I50): 8 µM | IC50 ([16]; herpes simplex type 1 UNG, read-out: IC50 for the viral enzyme): ~8 µM | IC50 [1]: > 300 µM

O=c1cc(/C=N/OCCCO/N=C/c2cc(O)c(O)cc2O)[nH]c(=O)[nH]1 [C00002 R = OH]
IC50 ([1]; bipartite inhibitors): 0.26 µM

O=C(O)c1cccc(/C=N/OCC(CO/N=C/c2cc(=O)[nH]c(=O)[nH]2)CO/N=C/c2cc(=O)[nH]c(=O)[nH]2)c1
IC50 ([1]; triskelion inhibitors): 0.9 µM

Cc1ccc(C(=O)Nc2ccc(S(=O)(=O)O)c3cc(S(=O)(=O)O)cc(S(=O)(=O)O)c23)cc1NC(=O)c1cccc(NC(=O)Nc2cccc(C(=O)Nc3cc(C(=O)Nc4ccc(S(=O)(=O)O)c5cc(S(=O)(=O)O)cc(S(=O)(=O)O)c45)ccc3C)c2)c1 [suramin]
Kd [17]: 16 µM

O=C(O)c1ccc(C=NOCCON=Cc2cc(=O)[nH]c(=O)[nH]2)cc1 [C00003 R1 = C00008 R2 = H, R3 = COOH]
IC50 ([1]; bipartite inhibitors): 6 µM

O=c1cc(/C=N/OCCCO/N=C/c2cc(O)c(O)cc2F)[nH]c(=O)[nH]1 [C00002 R = F]
IC50 ([1]; bipartite inhibitors): 2.7 µM

O=c1cc(/C=N/OCC(CO/N=C/c2ccc(O)c(O)c2)CO/N=C/c2cc(=O)[nH]c(=O)[nH]2)[nH]c(=O)[nH]1
IC50 ([1]; triskelion inhibitors): 0.9 µM

Nc1cc(N)c(N=O)c(N)n1 [5-nitroso-2,4,6-triaminopyridine]
Fpg inhibition (in words) [11]: weakly inhibited

CCCCCc1cc(O)cc2c1Oc1cc(O)cc(C(=O)CCCC)c1C(=O)O2 [norlobaric acid]
IC50 ([18]; read-out: I50): 42 µM | Ki [18, 19]: 0.074 µM

NC(=O)c1cccc(-c2ccc(S(=O)(=O)Nc3ccc4c(c3)N(C(=O)C3CC3)CCC4)cc2)c1 [C00025]
IC50 [6]: 0.059 µM
